pKd: −log10 of the molar value.
Assay: Binding affinity to bacterial 16S RNA ribosomal A site by surface plasmon technique

Row | SMILES | pKd
1 | NC[C@H]1O[C@@H](OC[C@H]2O[C@@H](OCCSC[C@H]3O[C@@H](n4ccc(N)nc4=O)[C@H](O)[C@@H]3O)[C@H](N)[C@@H](O)[C@@H]2O)[C@H](N)[C@@H](O)[C@@H]1O | 3.18
2 | Cc1cn([C@H]2C[C@H](O)[C@@H](CO[C@@H]3O[C@H](CO[C@@H]4O[C@H](CN)[C@@H](O)[C@H](O)[C@H]4N)[C@@H](O)[C@H](O)[C@H]3N)O2)c(=O)[nH]c1=O | 3.18
3 | NC[C@H]1O[C@@H](OC[C@H]2O[C@@H](OC[C@H]3O[C@@H](n4ccc(=O)[nH]c4=O)[C@H](O)[C@@H]3O)[C@H](N)[C@@H](O)[C@@H]2O)[C@H](N)[C@@H](O)[C@@H]1O | 2.70
4 | NC[C@H]1O[C@@H](SCCCCCCSC[C@H]2O[C@@H](n3ccc(=O)[nH]c3=O)[C@H](O)[C@@H]2O)[C@H](N)[C@@H](O)[C@@H]1O | 2.90
5 | Cc1cn([C@H]2C[C@H](O)[C@@H](CSCCO[C@@H]3O[C@H](CO[C@@H]4O[C@H](CN)[C@@H](O)[C@H](O)[C@H]4N)[C@@H](O)[C@H](O)[C@H]3N)O2)c(=O)[nH]c1=O | 3.43
6 | Cc1cn([C@H]2C[C@H](O)[C@@H](CSCCCCCCS[C@@H]3O[C@H](COC4O[C@H](CN)[C@@H](O)[C@H](O)[C@H]4N)[C@@H](O)[C@H](O)[C@H]3O)O2)c(=O)[nH]c1=O (stereo partly specified) | 3.40
7 | NC[C@H]1O[C@@H](OC[C@H]2O[C@@H](SCCCCCCSC[C@H]3O[C@@H](n4ccc(=O)[nH]c4=O)[C@H](O)[C@@H]3O)[C@H](N)[C@@H](O)[C@@H]2O)[C@H](N)[C@@H](O)[C@@H]1O | 2.96

These reach a higher pKd. Values come first.

Row | pKd | SMILES
8 | 3.98 | NC[C@H]1O[C@H](O[C@H]2[C@@H](NCCCCCCNC(=O)[C@H]3O[C@@H](n4ccc(N)nc4=O)[C@H](O)[C@@H]3O)[C@@H](O)[C@H](N)C[C@@H]2N)[C@H](N)[C@@H](O)[C@@H]1O
9 | 4.77 | NC[C@H]1O[C@H](O[C@H]2[C@@H](NCCCCCCNC(=O)[C@H]3O[C@@H](n4cnc5c(N)ncnc54)[C@H](O)[C@@H]3O)[C@@H](O)[C@H](N)C[C@@H]2N)[C@H](N)[C@@H](O)[C@@H]1O
10 | 4.42 | Cc1cn([C@@H]2O[C@H](C(=O)NCCCCCCN[C@H]3[C@@H](O)[C@H](N)C[C@H](N)[C@H]3O[C@H]3O[C@H](CN)[C@@H](O)[C@H](O)[C@H]3N)[C@@H](O)[C@H]2O)c(=O)[nH]c1=O
11 | 3.93 | Cc1cn([C@H]2C[C@H](O)[C@@H](CSCCCCCCS[C@@H]3O[C@H](CN)[C@@H](O)[C@H](O)[C@H]3O)O2)c(=O)[nH]c1=O
12 | 5.05 | Cc1cn([C@H]2C[C@H](O)[C@@H](C(=O)NCCN[C@H]3[C@@H](O)[C@H](N)C[C@H](N)[C@H]3O[C@H]3O[C@H](CN)[C@@H](O)[C@H](O)[C@H]3N)O2)c(=O)[nH]c1=O
13 | 5.00 | NC[C@H]1O[C@H](O[C@H]2[C@@H](NCCNC(=O)[C@H]3O[C@@H](n4cnc5c(N)ncnc54)[C@H](O)[C@@H]3O)[C@@H](O)[C@H](N)C[C@@H]2N)[C@H](N)[C@@H](O)[C@@H]1O
14 | 4.89 | NC[C@H]1O[C@H](O[C@H]2[C@@H](NCCNC(=O)[C@H]3O[C@@H](n4ccc(=O)[nH]c4=O)[C@H](O)[C@@H]3O)[C@@H](O)[C@H](N)C[C@@H]2N)[C@H](N)[C@@H](O)[C@@H]1O
15 | 4.25 | Cc1cn([C@H]2C[C@H](O)[C@@H](C(=O)NCCCCCCN[C@H]3[C@@H](O)[C@H](N)C[C@H](N)[C@H]3O[C@H]3O[C@H](CN)[C@@H](O)[C@H](O)[C@H]3N)O2)c(=O)[nH]c1=O
16 | 4.10 | NC[C@H]1O[C@H](O[C@H]2[C@@H](NCCNC(=O)[C@H]3O[C@@H](n4ccc(N)nc4=O)[C@H](O)[C@@H]3O)[C@@H](O)[C@H](N)C[C@@H]2N)[C@H](N)[C@@H](O)[C@@H]1O
